{"source": "patent US8148347B2", "about": "“Inhibition of interaction of PSD93 and PSDS95 with nNOS and NMDA receptors” (The Johns Hopkins University, priority 2000, dated 2012)", "format_in_all_cases": "in vivo, rat", "key": {"Male Sprague-Dawley rats [1]": {"system": "Male Sprague-Dawley rats", "test": "blood pressure and heart rate during isoflurane anesthesia", "description": "(§1) On the fifth day after saline or ODNs injection, each rat was placed in a clear plastic cone and anesthetized with 5% isoflurane in oxygen for three to five minutes. After tracheostomy, the trachea of each animal was intubated with a 16-gauge polyethylene catheter. The inspired isoflurane concentration was reduced to 2%, and the animals breathed spontaneously until cannulation of a carotid artery and a jugular vein with PE-50 tubing was accomplished. The isoflurane concentration was decreased further to 1.5%, and ventilation was controlled by a Harvard Animal Respirator (Harvard Apparatus, South Natick, Mass.) adjusted according to the measurement of arterial blood gases to maintain normal partial pressure of oxygen (PO2=91-94 mmHg), partial pressure of carbon dioxide (PCO2=33-41 mmHg) and pH (7.4-7.44). Electrocardiography and systolic and diastolic blood pressure were monitored using a Grass Polygraph (Astroumed Grass, Quincy, Mass.) and Gould Pressure Transducer (Gould, Cleveland, Ohio). Rectal temperature was maintained between 36.5 and 37.5° C. by use of a heating blanket and warming lights.\n(§2) In some saline-treated rats, after initial baseline MAC determination, NMDA at the dose of 1.25 μg^38 or saline was injected intrathecally in a volume of 10 μl saline, followed by an injection of 10 μl saline to flush the catheter. Fresh NMDA solution was prepared for each experiment. […] At this isoflurane concentration, 10 min after the intrathecal injection of NMDA, the animals were tested again for reactivity to tail clamp. The concentration of isoflurane was increased, and response to tail clamp was checked every 12-15 min thereafter until a negative response was achieved. In some antisense ODN (50 μg)-treated rats, after initial MAC determination, NMDA or saline was also administered intrathecally. The MAC for isoflurane was again determined following the aforementioned procedures."}, "Male Sprague-Dawley rats [2]": {"system": "Male Sprague-Dawley rats", "test": "measurement of isoflurane MAC (tail clamp)", "conditions": "for MAC (isoflurane): mean ± SD", "procedure": "The ODNs were dissolved in saline before administration. As described in the previous work,^49 the rats were injected intrathecally with saline (10 μl) (control), antisense ODNs (12.5, 25, 50 μg/10 μl), sense ODN (50 μg/10 μl) and missense ODN (50 μg/10 μl), respectively, followed by an injection of 10 μl of saline to flush the catheter, every 24 h for 4 days.\nas §1\nA PE-10 catheter was introduced through and beyond the endotracheal tube until obstruction to passage was met and then withdrawn 1 to 2 mm. For isoflurane MAC measurement, the PE-10 catheter was connected to a parameter airway gas monitor (Datex-Engstrom, Inc., Tewksbury, Mass.). After stabilizing about 30 minutes, MAC was measured according to the methods described previously^34 using a long hemostat (8-inch Rochester Dean Hemostatic Forceps) clamped to the first ratchet lock on the tail for 1 min. The tail was always stimulated proximal to a previous test site. Gross movement of the head, extremities, or body was taken as a positive test result, whereas grimacing, swallowing, chewing, or tail flick were considered negative results. The isoflurane concentration was reduced in decrements of 0.12 to 0.15% until the negative response became positive, with 12-15 min equilibration allowed after changes in concentration.^50,51 The MAC was considered to be the concentration midway between the highest concentration that permitted movement in response to the stimulus and the lowest concentration that prevented movement. Finally, intrathecal PE-10 catheter position from each animal was confirmed.\nas §2"}, "Male Sprague-Dawley rats [3]": {"system": "Male Sprague-Dawley rats", "test": "formalin-induced pain behaviors (flinches and shakes)", "conditions": "for reduction of the number of flinches and shakes evoked by formalin: 50 μg intrathecal", "procedure": "All of the experiments were carried out with the approval of the Animal Care Committee at the Johns Hopkins University. Thirty-eight male Sprague-Dawley rats (250-300 g, Hilltop Laboratory Animals, Scottsdale, Pa., USA) were implanted with an intrathecal PE-10 catheter at the rostral level of the spinal cord lumbar enlargement according to the method described by Yaksh and Rudy. After 4 to 7 days of recovery, they were intrathecally injected with one of the following agents every 24 hours for 4 consecutive days: saline (10 μl, n=6), PSD-95 antisense oligodeoxynucleotide (ODN) (12.5 μg/10 μl, n=6; 25 μg/10 μl, n=6; 50 μg/10 μl, n=6), sense ODN (50 μg/10 μl, n=5) or missense ODN (50 μg/10 μl, n=9). On the fifth day, formalin (4%, 100 μl) was injected into one of the hindpaws. The number of flinches and shakes of the injected paw was assessed for 1 hour. The observational session was divided into phasic (0-10 min) and tonic (10-60 min) periods. Rats were sacrificed two hours after formalin injection and their lumbar spinal cords were harvested for c-fos immunohistochemistry."}, "[4]": {"conditions": "pretreated with 50 μg antisense ODN, intrathecal NMDA 1.25 μg"}, "[5]": {"conditions": "50 μg intrathecal every 24 h for 4 days"}}}
{"substance": "5′-TGTGATCTCCTCATACTC-3′ (DNA, backbone and methylation of C not given here; listed as Rattus rattus) [antisense oligonucletide corresponding to the PDZ domain nucleotides 241 to 258 of rat PSD-95/SAP90 mRNA]", "values": [{"measurement": "BP Diastolic", "setting": "Male Sprague-Dawley rats [1]; 12.5 μg, before the tail clamp", "result": "112.58 ± 7.14", "unit": "mmHg"}, {"measurement": "BP Systolic", "setting": "Male Sprague-Dawley rats [1]; 12.5 μg, before the tail clamp", "result": "127.58 ± 11.72", "unit": "mmHg"}, {"measurement": "Heart rate", "setting": "Male Sprague-Dawley rats [1]; 12.5 μg, before the tail clamp", "result": "534.80 ± 29.13", "unit": "beats/min"}, {"measurement": "BP Diastolic", "setting": "Male Sprague-Dawley rats [1]; 25 μg, before the tail clamp", "result": "105.83 ± 7.89", "unit": "mmHg"}, {"measurement": "BP Systolic", "setting": "Male Sprague-Dawley rats [1]; 25 μg, before the tail clamp", "result": "122.75 ± 10.81", "unit": "mmHg"}, {"measurement": "Heart rate", "setting": "Male Sprague-Dawley rats [1]; 25 μg, before the tail clamp", "result": "541.20 ± 16.70", "unit": "beats/min"}, {"measurement": "BP Diastolic", "setting": "Male Sprague-Dawley rats [1]; 50 μg, before the tail clamp", "result": "112.50 ± 11.20", "unit": "mmHg"}, {"measurement": "BP Systolic", "setting": "Male Sprague-Dawley rats [1]; 50 μg, before the tail clamp", "result": "129.58 ± 11.73", "unit": "mmHg"}, {"measurement": "Heart rate", "setting": "Male Sprague-Dawley rats [1]; 50 μg, before the tail clamp", "result": "514.20 ± 62.20", "unit": "beats/min"}, {"measurement": "Heart rate", "setting": "Male Sprague-Dawley rats [1]; [4]", "result": "553±17", "unit": "beats/min"}, {"measurement": "diastolic blood pressure", "setting": "Male Sprague-Dawley rats [1]; [4]", "result": "117.00±6.35", "unit": "mmHg"}, {"measurement": "systolic blood pressure", "setting": "Male Sprague-Dawley rats [1]; [4]", "result": "138.00±5.77", "unit": "mmHg"}, {"measurement": "decrease from isoflurane control MAC", "setting": "Male Sprague-Dawley rats [2]; 12.5 μg", "result": 1, "unit": "%"}, {"measurement": "MAC (isoflurane)", "setting": "Male Sprague-Dawley rats [2]; 12.5 μg intrathecal every 24 h for 4 days", "result": "1.15 ± 0.18"}, {"measurement": "decrease from isoflurane control MAC", "setting": "Male Sprague-Dawley rats [2]; 25 μg", "result": 18, "unit": "%"}, {"measurement": "MAC (isoflurane)", "setting": "Male Sprague-Dawley rats [2]; 25 μg intrathecal every 24 h for 4 days", "result": "0.98 ± 0.14"}, {"measurement": "decrease from isoflurane control MAC", "setting": "Male Sprague-Dawley rats [2]; 50 μg", "result": 44, "unit": "%"}, {"measurement": "MAC (isoflurane)", "setting": "Male Sprague-Dawley rats [2]; [5]", "result": "0.72 ± 0.05"}, {"measurement": "increase in isoflurane MAC after NMDA compared to 50 μg antisense ODN alone", "setting": "Male Sprague-Dawley rats [2]; [4]", "result": "did not result in a significant increase"}, {"measurement": "reduction of the number of flinches and shakes evoked by formalin", "setting": "Male Sprague-Dawley rats [3]; phasic period (0-10 min)", "result": "but not in the phasic period"}, {"measurement": "reduction of the number of flinches and shakes evoked by formalin", "setting": "Male Sprague-Dawley rats [3]; tonic period (10-60 min)", "result": 59, "unit": "%"}, {"measurement": "changes in the number of flinches and shakes vs saline-treated group", "setting": "Male Sprague-Dawley rats [3]; 12.5 and 25 μg, phasic and tonic periods", "result": "failed to produce significant changes"}]}
{"substance": "5′-AAGCCCTTGTTCCCATTT-3′ (DNA, backbone and methylation of C not given here; listed as Rattus rattus) [MS, missense OND control, reference compound]", "values": [{"measurement": "BP Diastolic", "setting": "Male Sprague-Dawley rats [1]; 50 μg, before the tail clamp", "result": "105.75 ± 11.40", "unit": "mmHg"}, {"measurement": "BP Systolic", "setting": "Male Sprague-Dawley rats [1]; 50 μg, before the tail clamp", "result": "121.33 ± 15.84", "unit": "mmHg"}, {"measurement": "Heart rate", "setting": "Male Sprague-Dawley rats [1]; 50 μg, before the tail clamp", "result": "524.70 ± 44.90", "unit": "beats/min"}, {"measurement": "change of the value for isoflurane MAC compared to the control group", "setting": "Male Sprague-Dawley rats [2]; 50 μg intrathecal", "result": "did not significantly change"}, {"measurement": "MAC (isoflurane)", "setting": "Male Sprague-Dawley rats [2]; [5]", "result": "1.13 ± 0.15"}, {"measurement": "difference in the number of flinches and shakes vs saline-treated group", "setting": "Male Sprague-Dawley rats [3]; 50 μg/10 μl, either period", "result": "did not show any significant difference"}]}
